Residues, ends and D or L forms follow the SMILES beside them. *: point of attachment. FITC = O=C1OC2(c3ccc(O)cc3Oc3cc(O)ccc32)c2ccc(NC(=S)*)cc21
Assay: Lymph node draining study (IVIS)
Format: in vivo, C57BL/6 mice
Conditions: 31 nmol s.c. at tail base, after 1 day
Procedure: sHDL-[…](FITC)L was prepared as described above. Female C57BL/6 mice of age 6-8 weeks were purchased from Harlan Laboratories. C57BL/6 mice were subcutaneously injected with free […](FITC)L or sHDL-[…](FITC)L. 24 hours after injection, mice were euthanized by carbon dioxide inhalation and axillary lymph nodes and inguinal lymph nodes were harvested and imaged with IVIS optical imaging system (Caliper Lifesciences).
For lymph node draining studies, C57BL/6 mice were injected with free CSSSIINFBK(FITC)L, sHDL-CSSSIINFBK(FITC)L, free Cho-CpG(Cy5), or sHDL-Cho-CpG(Cy5). After 24 h, inguinal lymph nodes were harvested, and FITC or Cy5 fluorescence signal was measured with IVIS optical imaging system (Caliper Life Sciences).

## CC[C@H](C)[C@H](NC(=O)[C@H](CO)NC(=O)[C@H](CO)NC(=O)[C@H](CO)NC(=O)[C@@H](N)CS)C(=O)N[C@H](C(=O)N[C@@H](CC(N)=O)C(=O)N[C@@H](Cc1ccccc1)C(=O)N[C@@H](CCC(=O)O)C(=O)N[C@@H](CCCCNC(=S)Nc1ccc2c(c1)C(=O)OC21c2ccc(O)cc2Oc2cc(O)ccc21)C(=O)N[C@@H](CC(C)C)C(=O)O)[C@@H](C)CC [free CSS-SIINFEK(FITC)L] (H-CSSSIINFEK(FITC)L-OH)
  FITC signal in inguinal dLNs: minimal FITC signal in inguinal dLNs

Source: patent US12324843B2, “Compositions and methods for delivery of biomacromolecule agents” (The Regents of the University of Michigan, priority 2015, dated 2025)
